From publication PMC7990037 (Nature cancer, 2020)
Where a name gives a salt, the structure may show the parent alone.

Columns and labels:
primary human PBMCs [1] = conditions: 200 nM cGAMP electroporated, 16 h; 50 μM STF-1084; 2 μM STF-1623
[2] = tested on: cGAMP exporter(s) in 293T cGAS ENPP1−/− cells; assay: Intracellular and extracellular cGAMP in 293T cGAS ENPP1−/− cells; conditions: 24 hours; STF-1084 10 μM; STF-1623 2 μM; QS1 in ENPP1 null cells
[3] = Pharmacokinetics of STF-1623 after subcutaneous injection; type: in vivo, mouse
[4] = parallel artificial membrane permeability assay; type: in vitro ADME; conditions: PAMPA, compared to high and low permeability controls
Panc02 tumors = assay: Panc02 syngeneic subcutaneous pancreatic tumor model; type: in vivo, mouse; conditions: subcutaneous pump, 50 mg/kg/day
[5] = Liver microsome stability, human; conditions: liver microsomes
purified mouse ENPP1 = target: T1, purified mouse ENPP1 (Mus musculus, UniProt P06802); assay: 32P-cGAMP degradation TLC assay; type: biochemical
T1 sequence (P06802 85-906 limits assumed): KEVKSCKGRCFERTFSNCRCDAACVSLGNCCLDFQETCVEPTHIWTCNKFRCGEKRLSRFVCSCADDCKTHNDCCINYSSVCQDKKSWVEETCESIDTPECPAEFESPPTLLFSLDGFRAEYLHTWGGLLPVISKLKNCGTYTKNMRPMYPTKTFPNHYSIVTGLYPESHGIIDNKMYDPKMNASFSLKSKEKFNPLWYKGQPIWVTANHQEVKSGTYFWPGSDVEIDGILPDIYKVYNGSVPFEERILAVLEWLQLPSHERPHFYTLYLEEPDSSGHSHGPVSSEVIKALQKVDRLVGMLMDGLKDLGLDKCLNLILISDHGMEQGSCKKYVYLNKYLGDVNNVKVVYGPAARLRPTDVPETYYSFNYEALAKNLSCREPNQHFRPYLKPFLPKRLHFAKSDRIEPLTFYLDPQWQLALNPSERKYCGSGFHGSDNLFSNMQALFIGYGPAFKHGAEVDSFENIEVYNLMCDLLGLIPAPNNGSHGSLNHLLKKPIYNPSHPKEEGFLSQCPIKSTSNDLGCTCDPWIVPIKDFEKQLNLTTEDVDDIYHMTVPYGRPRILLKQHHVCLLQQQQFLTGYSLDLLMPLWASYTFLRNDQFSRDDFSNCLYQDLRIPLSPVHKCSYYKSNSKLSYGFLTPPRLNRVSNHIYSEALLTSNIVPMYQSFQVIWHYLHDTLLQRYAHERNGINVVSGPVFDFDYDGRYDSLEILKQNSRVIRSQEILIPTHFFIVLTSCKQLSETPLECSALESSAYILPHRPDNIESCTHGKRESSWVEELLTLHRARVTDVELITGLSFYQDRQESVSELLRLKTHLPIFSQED

Caco-2 monolayer = assay: Caco-2 permeability assay; type: in vitro ADME; conditions: Caco-2, apical to basolateral, 2 hours
primary human PBMCs [6] = assay: PBMC toxicity; conditions: 16 h
epithelial cells MDCK = assay: MDCK permeability assay; type: in vitro ADME
[7] = target: T2, human ENPP1 transfected into 293T cGAS ENPP1−/− cells (Homo sapiens, UniProt P22413); assay: cGAMP export assay in ENPP1-transfected cells; type: cell-based
T2 sequence (P22413 1-925): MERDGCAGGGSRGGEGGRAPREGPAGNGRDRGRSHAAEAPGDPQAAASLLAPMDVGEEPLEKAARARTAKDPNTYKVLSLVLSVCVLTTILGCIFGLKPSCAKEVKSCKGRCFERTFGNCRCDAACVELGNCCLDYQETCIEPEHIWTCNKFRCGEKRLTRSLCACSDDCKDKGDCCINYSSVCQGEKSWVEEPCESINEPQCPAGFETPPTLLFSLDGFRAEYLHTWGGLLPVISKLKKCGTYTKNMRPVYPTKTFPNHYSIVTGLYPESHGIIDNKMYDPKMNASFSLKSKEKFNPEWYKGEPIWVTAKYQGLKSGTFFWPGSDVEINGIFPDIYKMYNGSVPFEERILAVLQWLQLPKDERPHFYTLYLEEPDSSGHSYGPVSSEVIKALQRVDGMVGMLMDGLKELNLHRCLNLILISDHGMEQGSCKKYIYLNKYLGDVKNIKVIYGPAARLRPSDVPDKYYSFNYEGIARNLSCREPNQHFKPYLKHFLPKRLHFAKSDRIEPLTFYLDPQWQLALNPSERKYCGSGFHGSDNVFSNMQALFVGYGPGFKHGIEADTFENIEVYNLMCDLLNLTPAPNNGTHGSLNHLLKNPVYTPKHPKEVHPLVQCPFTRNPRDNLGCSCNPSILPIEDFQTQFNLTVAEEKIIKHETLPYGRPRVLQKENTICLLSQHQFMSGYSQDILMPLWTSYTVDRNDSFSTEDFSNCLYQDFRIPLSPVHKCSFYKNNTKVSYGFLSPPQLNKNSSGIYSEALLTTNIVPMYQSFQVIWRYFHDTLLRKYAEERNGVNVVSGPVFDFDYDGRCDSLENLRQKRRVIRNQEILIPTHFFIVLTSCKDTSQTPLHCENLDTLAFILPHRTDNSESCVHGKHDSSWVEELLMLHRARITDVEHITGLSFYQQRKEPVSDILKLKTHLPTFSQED

[8] = Liver microsome stability, mouse; conditions: liver microsomes
4T1-luc tumors = assay: Established orthotopic 4T1-luc tumor growth with IR and cGAMP; type: in vivo, mouse
CD14+ PBMCs = assay: Stimulation of CD14+ PBMCs with extracellular cGAMP; type: cell-based, human; conditions: soluble extracellular cGAMP, 16 h
[9] = target: T3, alkaline phosphatase (ALPL) (Homo sapiens, UniProt P05186); assay: ALPL inhibition assay; type: biochemical
T3 sequence (P05186 18-524): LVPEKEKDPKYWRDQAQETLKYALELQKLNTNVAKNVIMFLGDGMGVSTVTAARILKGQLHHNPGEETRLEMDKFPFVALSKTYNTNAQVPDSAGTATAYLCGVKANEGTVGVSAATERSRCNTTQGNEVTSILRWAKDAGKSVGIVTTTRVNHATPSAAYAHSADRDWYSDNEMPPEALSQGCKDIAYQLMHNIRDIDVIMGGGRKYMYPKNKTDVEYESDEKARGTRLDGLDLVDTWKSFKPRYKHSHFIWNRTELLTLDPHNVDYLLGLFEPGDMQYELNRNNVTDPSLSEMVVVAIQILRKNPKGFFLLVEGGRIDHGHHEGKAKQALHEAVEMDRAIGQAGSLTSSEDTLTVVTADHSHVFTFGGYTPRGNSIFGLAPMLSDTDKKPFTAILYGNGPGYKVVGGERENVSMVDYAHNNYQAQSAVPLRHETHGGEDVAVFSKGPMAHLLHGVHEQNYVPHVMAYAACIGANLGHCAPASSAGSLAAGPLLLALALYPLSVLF

[10] = Pharmacokinetics of STF-1084; conditions: in vivo
4T1-luc cells = assay: Extracellular cGAMP measurement in cancer cell lines; type: cell-based, mouse
ENPP2 = ENPP2 (Homo sapiens, UniProt Q13822); assay: ENPP2 inhibition assay; type: biochemical

COc1cccc2c(N3CCC(CCP(=O)(O)O)CC3)ncnc12 [STF-1623, (2-(1-(8-methoxyquinazolin-4-yl)piperidin-4-yl)ethyl)phosphonic acid]
cytokine production (IFNB1, CXCL10 mRNA) after cGAMP electroporation (primary human PBMCs [1]): no effect on cytokine production
effect on intracellular / extracellular cGAMP (cGAMP export) [2]: affected only extracellular cGAMP concentrations
concentration at 24 h ([3]; mouse, plasma, sc, 300 mg/kg): > 100 nM
pharmacokinetic profile (in words) ([3]; systemic dosing): improved pharmacokinetic profile compared to STF-1084
permeability category [4]: cell impermeable
tumor growth, combination with IR (Panc02 tumors; day 0 to 8, IR (20 Gy) on day 1): synergized with IR to delay tumor growth
tumor growth, single agent (Panc02 tumors; day 0 to 8, no IR): delayed tumor growth as a single agent
half-life [5]: > 2.65 h
Ki (purified mouse ENPP1): 16 nM
permeability category (Caco-2 monolayer): cell impermeable
toxicity to PBMCs (primary human PBMCs [6]): not toxic
permeability category (epithelial cells MDCK): cell impermeable
IC50 [7]: 68 nM
half-life [8]: > 2.65 h

Nc1nc2c(ncn2[C@@H]2O[C@@H]3COP(=O)(O)O[C@H]4[C@@H](O)[C@H](n5cnc6c(N)ncnc65)O[C@@H]4COP(=O)(O)O[C@@H]2[C@@H]3O)c(=O)[nH]1 [cGAMP, 2’3’-cyclic GMP-AMP]
tumor free survival (4T1-luc tumors; Enpp1−/− 4T1-luc tumors, IR (20 Gy) + three intratumoral injections of 10 μg cGAMP): 3/11
survival (4T1-luc tumors; WT 4T1-luc tumors, IR (20 Gy) + three intratumoral injections of 10 μg cGAMP): no mice inoculated with WT tumors survived
cGAMP concentration to which CD14+ PBMCs respond by upregulating IFNB1 (CD14+ PBMCs): submicromolar

COc1cc2ncnc(N3CCC(CCP(=O)(O)O)CC3)c2cc1OC [STF-1084, dimethyl (2-(1-(6,7-dimethoxyquinazolin-4-yl)piperidin-4-yl)ethyl)phosphonic acid hydrogen bromide salt]
tumor free survival (4T1-luc tumors; IR (20 Gy) + 10 μg cGAMP + 100 μL of 1 mM STF-1084 intratumoral on day 2, 4, 7): 1/10
Ki [9]: > 100000 nM
pharmacokinetics (in words) [10]: fast pharmacokinetics
effect on intracellular / extracellular cGAMP (cGAMP export) [2]: no effect on intracellular cGAMP
permeability category [4]: impermeable
extracellular cGAMP (4T1-luc cells; 4T1-luc, 48 hours, serum-containing media, 50 μM STF-1084): 3,000,000 molecules/cell
half-life [5]: > 2.65 h
Ki (ENPP2): 5500 nM
permeability category (Caco-2 monolayer): impermeable
toxicity to PBMCs (primary human PBMCs [6]; 100 μM): non-toxic
permeability category (epithelial cells MDCK): impermeable
half-life [8]: > 2.65 h

B1: mENPP1: purified soluble recombinant mouse ENPP1, cGAMP hydrolase (protein, UniProt P06802 80-906, looked up)
extracellular domain: KPSCAKEVKSCKGRCFERTFSNCRCDAACVSLGNCCLDFQETCVEPTHIWTCNKFRCGEKRLSRFVCSCADDCKTHNDCCINYSSVCQDKKSWVEETCESIDTPECPAEFESPPTLLFSLDGFRAEYLHTWGGLLPVISKLKNCGTYTKNMRPMYPTKTFPNHYSIVTGLYPESHGIIDNKMYDPKMNASFSLKSKEKFNPLWYKGQPIWVTANHQEVKSGTYFWPGSDVEIDGILPDIYKVYNGSVPFEERILAVLEWLQLPSHERPHFYTLYLEEPDSSGHSHGPVSSEVIKALQKVDRLVGMLMDGLKDLGLDKCLNLILISDHGMEQGSCKKYVYLNKYLGDVNNVKVVYGPAARLRPTDVPETYYSFNYEALAKNLSCREPNQHFRPYLKPFLPKRLHFAKSDRIEPLTFYLDPQWQLALNPSERKYCGSGFHGSDNLFSNMQALFIGYGPAFKHGAEVDSFENIEVYNLMCDLLGLIPAPNNGSHGSLNHLLKKPIYNPSHPKEEGFLSQCPIKSTSNDLGCTCDPWIVPIKDFEKQLNLTTEDVDDIYHMTVPYGRPRILLKQHHVCLLQQQQFLTGYSLDLLMPLWASYTFLRNDQFSRDDFSNCLYQDLRIPLSPVHKCSYYKSNSKLSYGFLTPPRLNRVSNHIYSEALLTSNIVPMYQSFQVIWHYLHDTLLQRYAHERNGINVVSGPVFDFDYDGRYDSLEILKQNSRVIRSQEILIPTHFFIVLTSCKQLSETPLECSALESSAYILPHRPDNIESCTHGKRESSWVEELLTLHRARVTDVELITGLSFYQDRQESVSELLRLKTHLPIFSQED
modifications: extracellular domain
extracellular cGAMP signal (4T1-luc cells; 4T1-luc conditioned media incubated with 10 nM recombinant mENPP1 overnight): abolished the cGAMP signal
